Assay results: patent US20140206681A1, “BTK INHIBITORS” (priority 2013, published 2014)
pIC50: −log10 of the molar value.

Tests used:
[1] = target: T1, BTK enzyme (recombinant full-length BTK, hBTK) (Homo sapiens, UniProt Q06187); assay: BTK enzyme activity assay, LANCE TR-FRET; type: biochemical; settings: 50 pM hBTK, 2 μM biotin-A5-peptide, 25 μM ATP; 60 min compound & enzyme incubation; read-out: IC50 BTK activity value
T1 construct: recombinant protein from baculovirus-transfected Sf9 cells: full-length BTK, 6HIS-tag cleaved; 6HIS (cleaved yes); made in house; host or cells: baculovirus-transfected Sf9 cells
T1 sequence (Q06187 whole entry): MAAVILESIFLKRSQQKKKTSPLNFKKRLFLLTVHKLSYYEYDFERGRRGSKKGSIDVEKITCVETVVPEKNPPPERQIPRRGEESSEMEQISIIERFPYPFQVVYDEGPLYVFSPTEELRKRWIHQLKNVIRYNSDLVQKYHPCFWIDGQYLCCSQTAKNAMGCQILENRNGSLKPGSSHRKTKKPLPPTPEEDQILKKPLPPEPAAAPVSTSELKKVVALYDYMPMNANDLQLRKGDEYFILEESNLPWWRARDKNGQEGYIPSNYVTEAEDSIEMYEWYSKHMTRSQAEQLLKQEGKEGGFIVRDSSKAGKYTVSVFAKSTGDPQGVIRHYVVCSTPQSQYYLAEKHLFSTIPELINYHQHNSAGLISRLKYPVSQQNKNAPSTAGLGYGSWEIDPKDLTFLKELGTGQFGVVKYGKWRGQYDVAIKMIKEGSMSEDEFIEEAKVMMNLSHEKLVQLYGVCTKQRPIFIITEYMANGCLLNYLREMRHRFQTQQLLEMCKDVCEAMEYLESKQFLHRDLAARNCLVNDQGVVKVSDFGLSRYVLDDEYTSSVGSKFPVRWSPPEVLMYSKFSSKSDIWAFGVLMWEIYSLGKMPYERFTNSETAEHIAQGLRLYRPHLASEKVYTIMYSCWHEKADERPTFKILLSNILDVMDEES

[2] = tested on: HeLa cells; assay: [3H]Adenosine uptake functional cellular assay; type: cell-based; settings: Homo sapiens, HeLa, accumulation of [3H]adenosine into HeLa cells; compound range 10 μM to […]; read-out: Adenosine uptake inhibition IC50
How it was run: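 Inhibition of adenosine uptake was measured in HeLa cells (ATCC CCL-2) by following accumulation of tritiated adenosine. Cells were kept overnight at 37° C. with 5% (v/v) CO2, then switched to 40 μL HBSS plus 5% (v/v) FBS. 20 μL of 500 nM [3H]adenosine was added, and uptake was counted on a Topcount NXT reader.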

SMILES: Cc1cc(C(=O)Nc2cc(C(F)(F)F)ccn2)c(F)cc1-c1nc([C@@H]2CC[C@H]3CCC(=O)N3C2)n2ccnc(N)c12 [Example 198, 4-(8-amino-3-((6R,8aS)-3-oxooctahydroindolizin-6-yl)imidazo[1,5-a]pyrazin-1-yl)-2-fluoro-5-methyl-N-(4-(trifluoromethyl)pyridin-2-yl)benzamide]
- pIC50 [1]: 8.09
- pIC50 [2]: 6.60

SMILES: CCOCCOc1cc(C(=O)Nc2cc(C(F)(F)F)ccn2)ccc1-c1nc([C@@H]2CC[C@H]3CCC(=O)N3C2)n2ccnc(N)c12 [Example 201, 4-{8-amino-3-[(6R,8aS)-3-oxooctahydroindolizin-6-yl]imidazo[1,5-a]pyrazin-1-yl}-3-(2-ethoxyethoxy)-N-[4-(trifluoromethyl)pyridin-2-yl]benzamide]
- pIC50 [1]: 8.49
- pIC50 [2]: 5.23

SMILES: COc1cc(C(=O)Nc2ncc(C)s2)ccc1-c1nc([C@@H]2CC[C@H]3CCC(=O)N3C2)n2ccnc(N)c12 [Example 202, 4-{8-amino-3-[(6R,8aS)-3-oxooctahydroindolizin-6-yl]imidazo[1,5-a]pyrazin-1-yl}-3-methoxy-N-(5-methyl-1,3-thiazol-2-yl)benzamide]
- pIC50 [1]: 8.28
- pIC50 [2]: 5.16

SMILES: COc1cc(C(=O)Nc2ncc(C)s2)ccc1-c1nc([C@@H]2CC[C@H]3CCC(=O)N3C2)n2c(Cl)cnc(N)c12 [Example 203, 4-{8-amino-5-chloro-3-[(6R,8aS)-3-oxooctahydroindolizin-6-yl]imidazo[1,5-a]pyrazin-1-yl}-3-methoxy-N-(5-methyl-1,3-thiazol-2-yl)benzamide]
- pIC50 [1]: 8.77
- pIC50 [2]: 5.76

SMILES: C#CCCOc1cc(C(=O)Nc2cc(C(F)(F)F)ccn2)ccc1-c1nc([C@@H]2CC[C@H]3CCC(=O)N3C2)n2ccnc(N)c12 [Example 204, 4-{8-amino-3-[(6R,8aS)-3-oxooctahydroindolizin-6-yl]imidazo[1,5-a]pyrazin-1-yl}-3-(but-3-yn-1-yloxy)-N-[4-(trifluoromethyl)pyridin-2-yl]benzamide]
- pIC50 [1]: 9.12
- pIC50 [2]: 5.86

SMILES: CCOc1cc(C(=O)Nc2cc(C(F)(F)F)n(C)n2)ccc1-c1nc([C@@H]2CC[C@H]3CCC(=O)N3C2)n2c(C)cnc(N)c12 [Example 205, 4-{8-amino-5-methyl-3-[(6R,8aS)-3-oxooctahydroindolizin-6-yl]imidazo[1,5-a]pyrazin-1-yl}-3-ethoxy-N-[1-methyl-5-(trifluoromethyl)-1H-pyrazol-3-yl]benzamide]
- pIC50 [1]: 8.92
- pIC50 [2]: 5.63

SMILES: CCOc1cc(C(=O)Nc2cc(C(F)(F)F)ccn2)ccc1-c1nc([C@@H]2CC[C@H]3CCC(=O)N3C2)n2c(C(F)(F)F)cnc(N)c12 [Example 206, 4-{8-amino-3-[(6R,8aS)-3-oxooctahydroindolizin-6-yl]-5-(trifluoromethyl)imidazo [1,5-a]pyrazin-1-yl}-3-ethoxy-N-[4-(trifluoromethyl)pyridin-2-yl]benzamide]
- pIC50 [1]: 9.14
- pIC50 [2]: 5.95

SMILES: CCc1ccnc(NC(=O)c2ccc(-c3nc([C@@H]4CC[C@H]5CCC(=O)N5C4)n4c(Cl)cnc(N)c34)c(OC)c2)c1 [Example 207, 4-{8-amino-5-chloro-3-[(6R,8aS)-3-oxooctahydroindolizin-6-yl]imidazo[1,5-a]pyrazin-1-yl}-N-(4-ethylpyridin-2-yl)-3-methoxybenzamide]
- pIC50 [1]: 9.24
- pIC50 [2]: 6.42

SMILES: COc1ccnc(NC(=O)c2ccc(-c3nc([C@@H]4CC[C@H]5CCC(=O)N5C4)n4c(Cl)cnc(N)c34)c(OC)c2)c1 [Example 208, 4-{8-amino-5-chloro-3-[(6R,8aS)-3-oxooctahydroindolizin-6-yl]imidazo[1,5-a]pyrazin-1-yl}-3-methoxy-N-(4-methoxypyridin-2-yl)benzamide]
- pIC50 [1]: 8.80
- pIC50 [2]: 6.41

SMILES: COc1cc(C(=O)Nc2cc(C3CCC3)ccn2)ccc1-c1nc([C@@H]2CC[C@H]3CCC(=O)N3C2)n2c(Cl)cnc(N)c12 [Example 209, 4-{8-amino-5-chloro-3-[(6R,8aS)-3-oxooctahydroindolizin-6-yl]imidazo[1,5-a]pyrazin-1-yl}-N-(4-cyclobutylpyridin-2-yl)-3-methoxybenzamide]
- pIC50 [1]: 9.39
- pIC50 [2]: 6.24

SMILES: COc1cc(C(=O)Nc2ccc(C)cn2)ccc1-c1nc([C@@H]2CC[C@H]3CCC(=O)N3C2)n2c(Cl)cnc(N)c12 [Example 210, 4-{8-amino-5-chloro-3-[(6R,8aS)-3-oxooctahydroindolizin-6-yl]imidazo[1,5-a]pyrazin-1-yl}-3-methoxy-N-(5-methylpyridin-2-yl)benzamide]
- pIC50 [1]: 8.85
- pIC50 [2]: 5.95

SMILES: Nc1ncc(C(F)(F)F)n2c([C@@H]3CC[C@H]4CCC(=O)N4C3)nc(-c3ccc(C(=O)Nc4cc(C(F)(F)F)ccn4)cc3Cl)c12 [Example 211, 4-{8-amino-3-[(6R,8aS)-3-oxooctahydroindolizin-6-yl]-5-(trifluoromethyl)imidazo[1,5-a]pyrazin-1-yl}-3-chloro-N-[4-(trifluoromethyl)pyridin-2-yl]benzamide]
- pIC50 [1]: 8.05
- pIC50 [2]: 6.57

SMILES: Nc1ncc(C(F)(F)F)n2c([C@@H]3CC[C@H]4CCC(=O)N4C3)nc(-c3ccc(C(=O)Nc4cc(C5CC5)ccn4)cc3F)c12 [Example 212, 4-{8-amino-3-[(6R,8aS)-3-oxooctahydroindolizin-6-yl]-5-(trifluoromethyl)imidazo [1,5-a]pyrazin-1-yl}-N-(4-cyclopropylpyridin-2-yl)-3-fluorobenzamide]
- pIC50 [1]: 8.42
- pIC50 [2]: 7.06

SMILES: COc1cc(C(=O)Nc2cc(C(F)(F)F)ccn2)ccc1-c1nc([C@@H]2CC[C@H]3CCC(=O)N3C2)n2c(C(F)(F)F)cnc(N)c12 [Example 213, 4-{8-amino-3-[(6R,8aS)-3-oxooctahydroindolizin-6-yl]-5-(trifluoromethyl)imidazo[1,5-a]pyrazin-1-yl}-3-methoxy-N-[4-(trifluoromethyl)pyridin-2-yl]benzamide]
- pIC50 [1]: 8.57
- pIC50 [2]: 6.16

SMILES: Cc1cc(C(=O)Nc2cc(C(F)(F)F)ccn2)cc(F)c1-c1nc([C@@H]2CC[C@H]3CCC(=O)N3C2)n2ccnc(N)c12 [Example 214, 4-{8-amino-3-[(6R,8aS)-3-oxooctahydroindolizin-6-yl]imidazo[1,5-a]pyrazin-1-yl}-3-fluoro-5-methyl-N-[4-(trifluoromethyl)pyridin-2-yl]benzamide]
- pIC50 [1]: 8.66
- pIC50 [2]: 6.29

SMILES: CCOc1cc(C(=O)Nc2cc(C(F)(F)F)n(C)n2)ccc1-c1nc([C@@H]2CC[C@H]3CCC(=O)N3C2)n2c(C(F)(F)F)cnc(N)c12 [Example 215, 4-{8-amino-3-[(6R,8aS)-3-oxooctahydroindolizin-6-yl]-5-(trifluoromethyl)imidazo[1,5-a]pyrazin-1-yl}-3-ethoxy-N-[1-methyl-5-(trifluoromethyl)-1H-pyrazol-3-yl]benzamide]
- pIC50 [1]: 8.40
- pIC50 [2]: 5.61

SMILES: CC(F)(F)Oc1cc(C(=O)Nc2cc(C(F)(F)F)ccn2)ccc1-c1nc([C@@H]2CC[C@H]3CCC(=O)N3C2)n2c(Cl)cnc(N)c12 [Example 216, 4-{8-amino-5-chloro-3-[(6R,8aS)-3-oxooctahydroindolizin-6-yl]imidazo[1,5-a]pyrazin-1-yl}-3-(1,1-difluoroethoxy)-N-[4-(trifluoromethyl)pyridin-2-yl]benzamide]
- pIC50 [1]: 8.18
- pIC50 [2]: 6.05

SMILES: COc1cc(C(=O)Nc2cc(C(F)(F)F)ccn2)cc(F)c1-c1nc([C@@H]2CC[C@H]3CCC(=O)N3C2)n2c(Cl)cnc(N)c12 [Example 217, 4-{8-amino-5-chloro-3-[(6R,8aS)-3-oxooctahydroindolizin-6-yl]imidazo[1,5-a]pyrazin-1-yl}-3-fluoro-5-methoxy-N-[4-(trifluoromethyl)pyridin-2-yl]benzamide]
- pIC50 [1]: 9.77
- pIC50 [2]: 6.15

SMILES: COc1cc(C(=O)Nc2cc(C(F)(F)F)ccn2)c(Cl)cc1-c1nc([C@@H]2CC[C@H]3CCC(=O)N3C2)n2c(Cl)cnc(N)c12 [Example 218, 4-{8-amino-5-chloro-3-[(6R,8aS)-3-oxooctahydroindolizin-6-yl]imidazo[1,5-a]pyrazin-1-yl}-2-chloro-5-methoxy-N-[4-(trifluoromethyl)pyridin-2-yl]benzamide]
- pIC50 [1]: 8.74
- pIC50 [2]: 5.31

SMILES: COc1cc(C(=O)Nc2cc(C(F)(F)F)ccn2)cc(F)c1-c1nc([C@@H]2CC[C@H]3CC(C)(C)C(=O)N3C2)n2ccnc(N)c12 [Example 219, 4-{8-amino-3-[(6R,8aS)-2,2-dimethyl-3-oxooctahydroindolizin-6-yl]imidazo[1,5-a]pyrazin-1-yl}-3-fluoro-5-methoxy-N-[4-(trifluoromethyl)pyridin-2-yl]benzamide]
- pIC50 [1]: 9.55
- pIC50 [2]: 6.14

SMILES: COc1cc(C(=O)Nc2cc(C(F)(F)F)ccn2)cc(F)c1-c1nc([C@@H]2CC[C@H]3CCC(=O)N3C2)n2c(F)cnc(N)c12 [Example 220, 4-{8-amino-5-fluoro-3-[(6R,8aS)-3-oxooctahydroindolizin-6-yl]imidazo[1,5-a]pyrazin-1-yl}-3-fluoro-5-methoxy-N-[4-(trifluoromethyl)pyridin-2-yl]benzamide]
- pIC50 [1]: 9.40
- pIC50 [2]: 5.82
